Patent publication US20210177803A1, “NEW PHARMACEUTICAL USE FOR THE TREATMENT OF HEART FAILURE” (Novartis AG, priority 2018, published 2021)
Where two headings read alike, the source gives them in different places.

Legend:
[1] = system: patients hospitalized for acute HFrEF; assay: PIONEER-HF study: clinical outcomes; assay type: in vivo, human
Description: The study rational and design is described in by Velazquez E J, et al. .in Am.
The starting dose and all subsequent doses were selected to optimize the highest tolerated dose based on a systolic blood pressure (SBP) algorithm.
Inclusion Criteria: • Patients ≥18 y of age with the capacity to provide written informed consent. • Currently hospitalized for a primary diagnosis of HF, including symptoms and signs of fluid overload. • Eligible patients will be randomized no earlier than 24 hours and up to ten days after presentation while still hospitalized as long as meet the following definition of stable status: • SBP≥100 mm Hg for the preceding 6 hours prior to randomization; no symptomatic hypotension • No increase (intensification) in i.v. diuretic dose within last 6 hours prior to randomization • No i.v. inotropic drugs for 24 hours prior to randomization • No i.v. vasodilators including nitrates within last 6 hours prior to randomization • Left ventricular EF 40% within the past 6 m (including current hospitalization) using echocardiography, multi gated acquisition scan (MUGA), CT scanning, MRI or ventricular angiography, provided no subsequent study documented an EF of >40% • Elevated NT-proBNP≥1600 pg/mL OR BNP≥400 pg/mL during current hospitalization.

[2] = system: patients with HFrEF following hemodynamic stabilization after an episode of ADHF;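 also: adverse events recorded in patients during the 10-week treatment phase following randomization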
[3] = 8 weeks, LCZ696 n = 440, enalapril n = 441
[4] = compared with enalapril, 8-week study period
[5] = not naive to ACEI/ARB (N = 665)

Question: For `CCCCC(=O)N(Cc1ccc(-c2ccccc2-c2nn[n-]n2)cc1)[C@H](C(=O)[O-])C(C)C.CCOC(=O)[C@H](C)C[C@@H](Cc1ccc(-c2ccccc2)cc1)NC(=O)CCC(=O)[O-].[Na+].[Na+].[Na+]` [LCZ696, trisodium [3((1S,3R)-1-biphenyl-4-ylmethyl-3-ethoxycarbonyl-1-butylcarbamoyl) propionate-(S)-3′-methyl-2′-(pentanoyl{2″-(tetrazol-5-ylate)biphenyl-4′-ylmethyl}amino)butyrate]hemipentahydrate], which “Additional HF drug” value [1, 3] is on record?
Answer: 75 (17.0) number (%)

Question: What about the “Composite (death, rehospitalization for HF, LVAD implantation, or listing for cardiac transplant)” value [1, 3] of the same compound?
Answer: 41 (9.3) number (%)

Question: What about the Death [1, 3] of the same compound?
Answer: 10 (2.3) number (%)

Question: And the “Expanded composite (composite plus unplanned outpatient visits requiring IV diuretics, or increase >50% in diuretic dose)” value [1, 3]?
Answer: 262 (59.5) number (%)

Question: What about the HF rehospitalization [1, 3] of the same compound?
Answer: 35 (8.0) number (%)

Question: And the “Increase in diuretic dose >50%” value [1, 3]?
Answer: 242 (55.0) number (%)

Question: What about the LVAD implantation [1, 3] of the same compound?
Answer: 1 (0.2) number (%)

Question: What about the “Listing for cardiac transplant” value [1, 3] of the same compound?
Answer: 0 (0.0) number (%)

Question: And the “Unplanned outpatient visits requiring intravenous diuretics” value [1, 3]?
Answer: 2 (0.5) number (%)

Question: What about the “Additional HF drug, HR (95% CI)” value ([1]; LCZ696 vs. Enalapril) of the same compound?
Answer: 0.89 (0.65, 1.22)

Question: And the “Death, HR (95% CI)” value ([1]; LCZ696 vs. Enalapril)?
Answer: 0.66 (0.30, 1.48)

Question: What about the “Expanded composite, HR (95% CI)” value ([1]; LCZ696 vs. Enalapril) of the same compound?
Answer: 0.409

Question: And the “HF rehospitalization, HR (95% CI)” value ([1]; LCZ696 vs. Enalapril)?
Answer: 0.56 (0.37, 0.84)

Question: What about the “Increase in diuretic dose >50%, HR (95% CI)” value ([1]; LCZ696 vs. Enalapril) of the same compound?
Answer: 0.84 (0.84, 1.21)

Question: What about the “LVAD implantation, HR (95% CI)” value ([1]; LCZ696 vs. Enalapril) of the same compound?
Answer: 0.99 (0.06, 15.97)

Question: What about the “Unplanned outpatient visits requiring intravenous diuretics, HR (95% CI)” value ([1]; LCZ696 vs. Enalapril) of the same compound?
Answer: 1.00 (0.14, 7.07)

Question: And the “Absolute risk reduction, clinical composite” value [1, 4]?
Answer: 7.5%

Question: And the “Relative risk reduction, clinical composite” value [1, 4]?
Answer: 44.6%

Question: What about the “Deaths attributed to the study treatment by the investigator” value ([2]; both arms) of the same compound?
Answer: None

Question: What about the “SAE hyperkalemia, patients” value ([2]; both treatment groups) of the same compound?
Answer: < 1%

Question: And the “SAE hypotension, patients” value ([2]; both treatment groups)?
Answer: < 1%

Question: What about the “AE of interest: Blood creatinine increased” value ([2]; de novo HFrEF (N = 286)) of the same compound?
Answer: 3 (1.0) n (%)

Question: And the “AE of interest: Cardiac failure” value ([2]; de novo HFrEF (N = 286))?
Answer: 13 (4.5) n (%)

Question: What about the “AE of interest: Hyperkalemia” value ([2]; de novo HFrEF (N = 286)) of the same compound?
Answer: 24 (8.4) n (%)

Question: And the “AE of interest: Hypotension” value ([2]; de novo HFrEF (N = 286))?
Answer: 26 (9.1) n (%)

Question: What about the “AE of interest: Renal failure” value ([2]; de novo HFrEF (N = 286)) of the same compound?
Answer: 3 (1.0) n (%)

Question: What about the “AE of interest: Renal impairment” value ([2]; de novo HFrEF (N = 286)) of the same compound?
Answer: 8 (2.8) n (%)

Question: And the “At least one AE” value ([2]; de novo HFrEF (N = 286))?
Answer: 178 (62.2) n (%)

Question: What about the “At least one serious AE” value ([2]; de novo HFrEF (N = 286)) of the same compound?
Answer: 33 (11.5) n (%)

Question: What about the Death ([2]; de novo HFrEF (N = 286)) of the same compound?
Answer: 1 (0.3) n (%)

Question: What about the “Treatment interruption due to AE” value ([2]; de novo HFrEF (N = 286)) of the same compound?
Answer: 22 (7.7) n (%)

Question: What about the “Rate of permanent discontinuation of study drug due to AEs” value ([2]; initiated post-discharge (text, secondary endpoint)) of the same compound?
Answer: 3.5%

Question: What about the “Rate of permanent discontinuation of study drug due to AEs” value ([2]; initiated pre-discharge (text, secondary endpoint)) of the same compound?
Answer: 4.5%

Question: What about the “AE of interest: Blood creatinine increased” value ([2]; naive to ACEI/ARB (N = 326)) of the same compound?
Answer: 6 (1.8) n (%)

Question: And the “AE of interest: Cardiac failure” value ([2]; naive to ACEI/ARB (N = 326))?
Answer: 17 (5.2) n (%)

Question: And the “AE of interest: Hyperkalemia” value ([2]; naive to ACEI/ARB (N = 326))?
Answer: 20 (7.1) n (%)

Question: And the “AE of interest: Hypotension” value ([2]; naive to ACEI/ARB (N = 326))?
Answer: 29 (8.9) n (%)

Question: What about the “AE of interest: Renal failure” value ([2]; naive to ACEI/ARB (N = 326)) of the same compound?
Answer: 6 (1.8) n (%)

Question: And the “AE of interest: Renal impairment” value ([2]; naive to ACEI/ARB (N = 326))?
Answer: 8 (2.5) n (%)

Question: What about the “At least one AE” value ([2]; naive to ACEI/ARB (N = 326)) of the same compound?
Answer: 210 (64.4) n (%)

Question: And the “At least one serious AE” value ([2]; naive to ACEI/ARB (N = 326))?
Answer: 47 (14.4) n (%)

Question: And the “Treatment interruption due to AE” value ([2]; naive to ACEI/ARB (N = 326))?
Answer: 32 (9.8) n (%)

Question: What about the “AE of interest: Blood creatinine increased” value [2, 5] of the same compound?
Answer: 23 (3.5) n (%)

Question: And the “AE of interest: Cardiac failure” value [2, 5]?
Answer: 54 (8.1) n (%)

Question: And the “AE of interest: Hyperkalemia” value [2, 5]?
Answer: 86 (12.9) n (%)

Question: And the “AE of interest: Hypotension” value [2, 5]?
Answer: 79 (11.9) n (%)

Question: What about the “AE of interest: Renal failure” value [2, 5] of the same compound?
Answer: 13 (2.0) n (%)

Question: What about the “AE of interest: Renal impairment” value [2, 5] of the same compound?
Answer: 32 (4.8) n (%)

Question: And the “At least one AE” value [2, 5]?
Answer: 446 (67.1) n (%)

Question: And the “At least one serious AE” value [2, 5]?
Answer: 116 (17.4) n (%)

Question: And the “Treatment interruption due to AE” value [2, 5]?
Answer: 77 (11.8) n (%)

Question: What about the “Mortality, patients who died” value ([2]; post-discharge arm) of the same compound?
Answer: 2.0%

Question: What about the “AE cardiac failure, patients” value ([2]; post-discharge group) of the same compound?
Answer: 8.5%

Question: What about the “AE dizziness, patients” value ([2]; post-discharge group) of the same compound?
Answer: 4.2%

Question: And the “AE hyperkalemia, patients” value ([2]; post-discharge group)?
Answer: 11.3%

Question: And the “AE hypotension, patients” value ([2]; post-discharge group)?
Answer: 9.1%

Question: What about the “Patients with SAEs” value ([2]; post-discharge group) of the same compound?
Answer: 17.7%

Question: And the “SAE acute kidney injury, patients” value ([2]; post-discharge group)?
Answer: 1.4%

Question: And the “SAE cardiac failure, patients” value ([2]; post-discharge group)?
Answer: 7.7%

Question: And the “Permanent treatment discontinuation due to SAEs” value ([2]; post-discharge, N = 496)?
Answer: 13 (2.6) n (%)

Question: What about the “Permanent treatment discontinuation due to non-SAEs” value ([2]; post-discharge, N = 496) of the same compound?
Answer: 7 (1.4) n (%)

Question: And the “Serious adverse event: Acute kidney injury” value ([2]; post-discharge, N = 496)?
Answer: 7 (1.4) n (%)

Question: What about the “Serious adverse event: Atrial fibrillation” value ([2]; post-discharge, N = 496) of the same compound?
Answer: 4 (0.8) n (%)

Question: What about the “Serious adverse event: Cardiac failure(acute/chronic)” value ([2]; post-discharge, N = 496) of the same compound?
Answer: 38 (7.7) n (%)

Question: What about the “Serious adverse event: Chronic obstructive pulmonary disease” value ([2]; post-discharge, N = 496) of the same compound?
Answer: 4 (0.8) n (%)

Question: What about the “Serious adverse event: Hyperkalemia” value ([2]; post-discharge, N = 496) of the same compound?
Answer: 2 (0.4) n (%)

Question: And the “Serious adverse event: Hypotension” value ([2]; post-discharge, N = 496)?
Answer: 2 (0.4) n (%)

Question: And the “Serious adverse event: Non-cardiac chest pain” value ([2]; post-discharge, N = 496)?
Answer: 3 (0.6) n (%)
